Measured values: the kinase profiling compilation of Christmann-Franck et al. (2016)

How the values were obtained:
Test in all cases: KINOMEscan competition binding
Settings in all cases: compound 10.0 µM
DCLK3 (human) = DCLK3 (human) (UniProt Q9C098)
NEK5 (human) = NEK5 (human) (UniProt Q6P3R8)
FGFR1 (human) = FGFR1 (human) (UniProt P11362)
MAP3K12 (human) = MAP3K12 (human) (UniProt Q12852)
CAMK1G (human) = CAMK1G (human) (UniProt Q96NX5)
GSK3B (human) = GSK3B (human) (UniProt P49841)
MARK4 (human) = MARK4 (human) (UniProt Q96L34)
PRKCH (human) = PRKCH (human) (UniProt P24723)
ITK (human) = ITK (human) (UniProt Q08881)
RPS6KA6 KD1 (human) = RPS6KA6 KD1 (human) (UniProt Q9UK32)
LYN (human) = LYN (human) (UniProt P07948)
SRMS (human) = SRMS (human) (UniProt Q9H3Y6)
AXL (human) = AXL (human) (UniProt P30530)
RIPK1 (human) = RIPK1 (human) (UniProt Q13546)
SRPK3 (human) = SRPK3 (human) (UniProt Q9UPE1)
CHEK1 (human) = CHEK1 (human) (UniProt O14757)
MAPK12 (human) = MAPK12 (human) (UniProt P53778)
DMPK (human) = DMPK (human) (UniProt Q09013)
INSRR (human) = INSRR (human) (UniProt P14616)
CSNK2A1 (human) = CSNK2A1 (human) (UniProt P68400)
ROCK2 (human) = ROCK2 (human) (UniProt O75116)
MAP2K2 (human) = MAP2K2 (human) (UniProt P36507)
EPHA1 (human) = EPHA1 (human) (UniProt P21709)
MAPKAPK2 (human) = MAPKAPK2 (human) (UniProt P49137)
TSSK1B (human) = TSSK1B (human) (UniProt Q9BXA7)
CAMK2D (human) = CAMK2D (human) (UniProt Q13557)
RPS6KA4 KD2 (human) = RPS6KA4 KD2 (human) (UniProt O75676)
CHUK (human) = CHUK (human) (UniProt O15111)
ULK3 (human) = ULK3 (human) (UniProt Q6PHR2)
MAP2K1 (human) = MAP2K1 (human) (UniProt Q02750)
PKN2 (human) = PKN2 (human) (UniProt Q16513)
CSF1R (human) = CSF1R (human) (UniProt P07333)
SYK (human) = SYK (human) (UniProt P43405)
NTRK2 (human) = NTRK2 (human) (UniProt Q16620)
TTK (human) = TTK (human) (UniProt P33981)
FLT1 (human) = FLT1 (human) (UniProt P17948)
CDK5 (human) = CDK5 (human) (UniProt Q00535)
PKN1 (human) = PKN1 (human) (UniProt Q16512)
PLK4 (human) = PLK4 (human) (UniProt O00444)
SLK (human) = SLK (human) (UniProt Q9H2G2)
Chain of SLK (human) (Q9H2G2 whole entry, looked up): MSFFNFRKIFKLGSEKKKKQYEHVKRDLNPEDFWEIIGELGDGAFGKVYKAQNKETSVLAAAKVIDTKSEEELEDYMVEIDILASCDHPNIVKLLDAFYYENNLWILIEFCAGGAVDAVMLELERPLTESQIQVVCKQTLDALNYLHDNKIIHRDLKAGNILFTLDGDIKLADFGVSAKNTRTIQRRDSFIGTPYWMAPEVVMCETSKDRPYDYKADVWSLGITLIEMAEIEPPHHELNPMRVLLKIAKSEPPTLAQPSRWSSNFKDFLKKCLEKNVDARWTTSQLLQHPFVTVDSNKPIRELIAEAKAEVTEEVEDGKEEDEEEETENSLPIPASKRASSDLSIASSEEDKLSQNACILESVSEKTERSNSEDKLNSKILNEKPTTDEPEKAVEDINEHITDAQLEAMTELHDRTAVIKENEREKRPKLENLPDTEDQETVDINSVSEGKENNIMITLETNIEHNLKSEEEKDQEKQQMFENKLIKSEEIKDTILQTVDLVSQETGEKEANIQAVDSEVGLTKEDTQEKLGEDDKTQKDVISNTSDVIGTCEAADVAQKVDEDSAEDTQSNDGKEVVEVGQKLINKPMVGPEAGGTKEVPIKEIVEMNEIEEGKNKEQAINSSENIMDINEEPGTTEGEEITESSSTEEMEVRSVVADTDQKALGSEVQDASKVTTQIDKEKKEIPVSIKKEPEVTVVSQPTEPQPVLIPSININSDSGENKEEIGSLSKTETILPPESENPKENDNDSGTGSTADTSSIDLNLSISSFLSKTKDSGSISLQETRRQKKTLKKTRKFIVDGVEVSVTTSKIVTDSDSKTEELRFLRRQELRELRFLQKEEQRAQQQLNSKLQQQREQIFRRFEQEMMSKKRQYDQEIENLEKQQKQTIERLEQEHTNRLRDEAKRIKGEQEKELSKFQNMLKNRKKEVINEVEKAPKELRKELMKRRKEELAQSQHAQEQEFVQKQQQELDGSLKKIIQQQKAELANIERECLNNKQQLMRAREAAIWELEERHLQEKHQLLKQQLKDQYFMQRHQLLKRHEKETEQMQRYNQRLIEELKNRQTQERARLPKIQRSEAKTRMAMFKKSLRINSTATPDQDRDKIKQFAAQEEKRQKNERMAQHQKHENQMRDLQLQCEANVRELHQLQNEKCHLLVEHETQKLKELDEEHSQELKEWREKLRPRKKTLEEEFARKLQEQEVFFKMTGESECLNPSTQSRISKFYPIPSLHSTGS

Chain of PRKCH (human) (P24723 whole entry, looked up): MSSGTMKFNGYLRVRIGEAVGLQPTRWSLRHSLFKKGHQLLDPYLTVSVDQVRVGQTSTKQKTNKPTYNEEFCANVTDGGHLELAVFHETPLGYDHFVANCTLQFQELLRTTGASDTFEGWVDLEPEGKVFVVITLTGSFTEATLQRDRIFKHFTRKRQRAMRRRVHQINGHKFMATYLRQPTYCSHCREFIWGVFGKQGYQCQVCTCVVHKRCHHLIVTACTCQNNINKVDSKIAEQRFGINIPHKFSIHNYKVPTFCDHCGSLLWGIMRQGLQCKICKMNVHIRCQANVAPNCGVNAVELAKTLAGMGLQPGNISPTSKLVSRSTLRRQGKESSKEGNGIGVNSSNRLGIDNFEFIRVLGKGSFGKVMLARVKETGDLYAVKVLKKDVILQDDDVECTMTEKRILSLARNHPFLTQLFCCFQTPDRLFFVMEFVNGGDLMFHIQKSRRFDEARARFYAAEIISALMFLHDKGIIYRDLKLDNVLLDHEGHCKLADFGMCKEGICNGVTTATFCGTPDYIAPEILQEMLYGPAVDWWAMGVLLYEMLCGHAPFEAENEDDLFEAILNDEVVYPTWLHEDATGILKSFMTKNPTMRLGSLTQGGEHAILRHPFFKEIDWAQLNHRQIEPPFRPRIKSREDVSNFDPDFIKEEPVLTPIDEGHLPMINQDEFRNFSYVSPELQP
Chain of FLT1 (human) (P17948 whole entry, looked up): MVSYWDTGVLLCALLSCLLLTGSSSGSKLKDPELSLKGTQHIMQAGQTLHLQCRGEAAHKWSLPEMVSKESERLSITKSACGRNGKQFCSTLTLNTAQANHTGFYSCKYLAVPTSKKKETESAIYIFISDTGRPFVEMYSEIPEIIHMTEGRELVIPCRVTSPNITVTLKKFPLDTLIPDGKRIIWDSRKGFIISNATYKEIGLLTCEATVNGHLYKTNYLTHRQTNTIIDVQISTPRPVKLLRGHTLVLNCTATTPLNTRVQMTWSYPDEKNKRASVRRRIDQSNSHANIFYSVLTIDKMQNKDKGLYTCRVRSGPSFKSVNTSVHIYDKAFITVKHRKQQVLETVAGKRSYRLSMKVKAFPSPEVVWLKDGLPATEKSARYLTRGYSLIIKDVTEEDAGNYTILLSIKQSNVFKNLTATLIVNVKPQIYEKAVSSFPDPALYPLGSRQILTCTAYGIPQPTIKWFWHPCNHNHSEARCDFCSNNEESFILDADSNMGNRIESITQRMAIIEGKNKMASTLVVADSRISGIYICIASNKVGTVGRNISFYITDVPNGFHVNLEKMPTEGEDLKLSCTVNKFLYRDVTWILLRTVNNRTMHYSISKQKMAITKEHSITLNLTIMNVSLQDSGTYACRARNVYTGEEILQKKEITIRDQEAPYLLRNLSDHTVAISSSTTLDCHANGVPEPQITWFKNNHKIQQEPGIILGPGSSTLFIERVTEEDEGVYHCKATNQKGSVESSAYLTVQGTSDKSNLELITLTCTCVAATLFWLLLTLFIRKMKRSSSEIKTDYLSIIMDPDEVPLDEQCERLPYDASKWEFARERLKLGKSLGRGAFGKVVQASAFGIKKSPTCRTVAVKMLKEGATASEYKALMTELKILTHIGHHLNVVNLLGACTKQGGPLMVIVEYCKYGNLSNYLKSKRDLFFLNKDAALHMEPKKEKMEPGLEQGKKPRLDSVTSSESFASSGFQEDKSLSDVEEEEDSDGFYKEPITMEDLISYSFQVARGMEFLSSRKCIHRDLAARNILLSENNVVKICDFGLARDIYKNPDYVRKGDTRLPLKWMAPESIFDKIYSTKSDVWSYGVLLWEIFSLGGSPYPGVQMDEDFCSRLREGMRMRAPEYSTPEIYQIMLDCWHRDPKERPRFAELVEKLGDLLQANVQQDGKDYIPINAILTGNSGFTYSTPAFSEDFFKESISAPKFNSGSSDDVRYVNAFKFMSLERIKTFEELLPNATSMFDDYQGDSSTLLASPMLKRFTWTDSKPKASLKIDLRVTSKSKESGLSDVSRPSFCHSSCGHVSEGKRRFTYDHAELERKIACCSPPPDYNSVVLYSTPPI
Chain of NTRK2 (human) (Q16620 whole entry, looked up): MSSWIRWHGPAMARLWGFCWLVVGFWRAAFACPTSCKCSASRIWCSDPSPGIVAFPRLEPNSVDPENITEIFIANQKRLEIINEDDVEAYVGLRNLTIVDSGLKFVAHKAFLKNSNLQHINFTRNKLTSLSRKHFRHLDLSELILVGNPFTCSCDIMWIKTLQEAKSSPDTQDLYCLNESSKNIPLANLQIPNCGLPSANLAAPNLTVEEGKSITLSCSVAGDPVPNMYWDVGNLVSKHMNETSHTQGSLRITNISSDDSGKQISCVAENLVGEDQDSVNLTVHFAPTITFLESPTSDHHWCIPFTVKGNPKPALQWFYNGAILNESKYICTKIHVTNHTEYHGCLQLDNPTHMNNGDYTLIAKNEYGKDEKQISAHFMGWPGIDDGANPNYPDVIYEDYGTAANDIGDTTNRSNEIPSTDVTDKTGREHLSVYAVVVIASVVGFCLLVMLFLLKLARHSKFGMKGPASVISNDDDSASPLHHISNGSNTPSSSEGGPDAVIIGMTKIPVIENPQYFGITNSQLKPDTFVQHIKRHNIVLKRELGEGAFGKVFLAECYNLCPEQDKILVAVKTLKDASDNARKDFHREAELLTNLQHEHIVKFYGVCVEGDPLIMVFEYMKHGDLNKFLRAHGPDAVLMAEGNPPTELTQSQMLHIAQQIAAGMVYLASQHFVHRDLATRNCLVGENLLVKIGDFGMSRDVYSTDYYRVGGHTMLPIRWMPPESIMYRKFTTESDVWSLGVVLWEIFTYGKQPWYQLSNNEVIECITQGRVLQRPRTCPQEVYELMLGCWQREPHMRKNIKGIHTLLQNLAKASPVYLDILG
Chain of MAP2K2 (human) (P36507 whole entry, looked up): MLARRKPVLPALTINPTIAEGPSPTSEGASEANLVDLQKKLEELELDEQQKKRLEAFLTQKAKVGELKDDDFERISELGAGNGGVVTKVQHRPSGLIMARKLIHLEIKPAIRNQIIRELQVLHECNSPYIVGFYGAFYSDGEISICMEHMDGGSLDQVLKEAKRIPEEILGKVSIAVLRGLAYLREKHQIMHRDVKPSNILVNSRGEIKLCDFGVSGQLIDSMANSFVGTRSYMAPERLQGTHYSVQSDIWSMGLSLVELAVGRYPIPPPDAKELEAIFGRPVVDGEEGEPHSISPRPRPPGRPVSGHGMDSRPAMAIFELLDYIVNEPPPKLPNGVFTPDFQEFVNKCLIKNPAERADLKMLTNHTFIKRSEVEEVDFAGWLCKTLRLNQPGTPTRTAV
Chain of ULK3 (human) (Q6PHR2 whole entry, looked up): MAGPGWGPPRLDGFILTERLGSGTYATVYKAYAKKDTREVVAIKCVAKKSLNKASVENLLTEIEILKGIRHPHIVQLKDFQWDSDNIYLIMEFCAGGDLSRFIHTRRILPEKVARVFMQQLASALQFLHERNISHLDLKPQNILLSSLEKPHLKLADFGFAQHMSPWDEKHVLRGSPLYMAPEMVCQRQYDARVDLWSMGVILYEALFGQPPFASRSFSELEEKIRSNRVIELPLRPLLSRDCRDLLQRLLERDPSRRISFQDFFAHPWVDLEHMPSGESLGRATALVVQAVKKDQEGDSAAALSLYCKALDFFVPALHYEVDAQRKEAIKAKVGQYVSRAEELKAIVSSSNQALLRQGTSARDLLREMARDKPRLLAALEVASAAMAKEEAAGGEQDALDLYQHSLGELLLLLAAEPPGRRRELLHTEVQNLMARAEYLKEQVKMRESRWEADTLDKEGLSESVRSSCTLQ

Row | Structure (SMILES) | kinase still bound, per cent of control (DCLK3 (human)) [%] | kinase still bound, per cent of control (NEK5 (human)) [%] | kinase still bound, per cent of control (FGFR1 (human)) [%] | kinase still bound, per cent of control (MAP3K12 (human)) [%] | kinase still bound, per cent of control (CAMK1G (human)) [%] | kinase still bound, per cent of control (GSK3B (human)) [%] | kinase still bound, per cent of control (MARK4 (human)) [%] | kinase still bound, per cent of control (PRKCH (human)) [%] | kinase still bound, per cent of control (ITK (human)) [%] | kinase still bound, per cent of control (RPS6KA6 KD1 (human)) [%] | kinase still bound, per cent of control (LYN (human)) [%] | kinase still bound, per cent of control (SRMS (human)) [%] | kinase still bound, per cent of control (AXL (human)) [%] | kinase still bound, per cent of control (RIPK1 (human)) [%] | kinase still bound, per cent of control (SRPK3 (human)) [%] | kinase still bound, per cent of control (CHEK1 (human)) [%] | kinase still bound, per cent of control (MAPK12 (human)) [%] | kinase still bound, per cent of control (DMPK (human)) [%] | kinase still bound, per cent of control (INSRR (human)) [%] | kinase still bound, per cent of control (CSNK2A1 (human)) [%] | further results
1 | COc1cc(N2CCN(C)CC2)ccc1Nc1nc(N)c(C(=O)c2c(Cl)cccc2Cl)s1 | 14 | 96 | 94 | 97 | 42 | 100 | 82 | 93 | 91 | 79 | 100 | 71 | 100 | 100 | 77 | 79 | 100 | 50 | 100 | 91 | kinase still bound, per cent of control (ROCK2 (human)): 88%; kinase still bound, per cent of control (MAP2K2 (human)): 93%; kinase still bound, per cent of control (EPHA1 (human)): 100%; kinase still bound, per cent of control (MAPKAPK2 (human)): 100%; kinase still bound, per cent of control (TSSK1B (human)): 87%; kinase still bound, per cent of control (CAMK2D (human)): 23%; kinase still bound, per cent of control (RPS6KA4 KD2 (human)): 100%; kinase still bound, per cent of control (CHUK (human)): 58%; kinase still bound, per cent of control (ULK3 (human)): 100%; kinase still bound, per cent of control (MAP2K1 (human)): 100%; kinase still bound, per cent of control (PKN2 (human)): 98%; kinase still bound, per cent of control (CSF1R (human)): 67%; kinase still bound, per cent of control (SYK (human)): 59%; kinase still bound, per cent of control (NTRK2 (human)): 80%; kinase still bound, per cent of control (TTK (human)): 20%; kinase still bound, per cent of control (FLT1 (human)): 100%; kinase still bound, per cent of control (CDK5 (human)): 88%; kinase still bound, per cent of control (PKN1 (human)): 100%; kinase still bound, per cent of control (PLK4 (human)): 100%; kinase still bound, per cent of control (SLK (human)): 1.6%
2 | O=C(NC1CC1)c1cccc(-c2ccc3c(NC(=O)C4CC4)n[nH]c3c2)c1 | 100 | 60 | 100 | 30 | 75 | 97 | 96 | 100 | 100 | 91 | 83 | 93 | 54 | 0.05 | 10 | 100 | 24 | 100 | 95 | 62 | kinase still bound, per cent of control (ROCK2 (human)): 53%; kinase still bound, per cent of control (MAP2K2 (human)): 82%; kinase still bound, per cent of control (EPHA1 (human)): 98%; kinase still bound, per cent of control (MAPKAPK2 (human)): 100%; kinase still bound, per cent of control (TSSK1B (human)): 69%; kinase still bound, per cent of control (CAMK2D (human)): 84%; kinase still bound, per cent of control (RPS6KA4 KD2 (human)): 100%; kinase still bound, per cent of control (CHUK (human)): 76%; kinase still bound, per cent of control (ULK3 (human)): 13%; kinase still bound, per cent of control (MAP2K1 (human)): 100%; kinase still bound, per cent of control (PKN2 (human)): 78%; kinase still bound, per cent of control (CSF1R (human)): 70%; kinase still bound, per cent of control (SYK (human)): 100%; kinase still bound, per cent of control (NTRK2 (human)): 61%; kinase still bound, per cent of control (TTK (human)): 42%; kinase still bound, per cent of control (FLT1 (human)): 100%; kinase still bound, per cent of control (CDK5 (human)): 60%; kinase still bound, per cent of control (PKN1 (human)): 100%; kinase still bound, per cent of control (PLK4 (human)): 13%; kinase still bound, per cent of control (SLK (human)): 100%
